For assay [1], the system named is human lung cancer strain NCI-H441. Briefly: cells. Conditions: NCI-H441, 96 h, read-out: NCI-H441 IC50 (nM), NCI-H441 cell proliferation, 4 days, CellTiter-Glo. Background: ATP-based viability assays read luminescence as a measure of living cells.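 Further: cell proliferation inhibition after four days measured by CellTiter-Glo.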
For assay [2], the target named is GDP-bound HRAS wild-type protein (Homo sapiens, UniProt P01112). The experiment in a line: Binding to HRAS by surface plasmon resonance (SPR), Single Cycle Kinetics. Conditions: ratio of KD for GDP-bound HRAS wild-type protein to KD for KRAS, SPR.
Chain of GDP-bound HRAS wild-type protein (P01112 whole entry): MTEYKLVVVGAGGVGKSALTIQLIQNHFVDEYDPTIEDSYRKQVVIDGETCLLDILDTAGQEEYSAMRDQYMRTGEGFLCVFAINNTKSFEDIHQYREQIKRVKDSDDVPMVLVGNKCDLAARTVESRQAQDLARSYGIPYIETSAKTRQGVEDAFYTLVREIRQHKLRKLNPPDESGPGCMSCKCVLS
Assay [3] has as its target GDP-bound NRAS wild-type protein (Homo sapiens, UniProt P01111). The experiment in a line: Binding to NRAS by surface plasmon resonance (SPR), Single Cycle Kinetics. Conditions: ratio of KD for GDP-bound NRAS wild-type protein to KD for KRAS, SPR. On the technique in general: Surface plasmon resonance follows binding to a sensor surface in real time, without labels.
The target of assay [4] is GDP-bound KRAS wild-type protein (Homo sapiens, UniProt P01116). The experiment in a line: Binding to KRAS by surface plasmon resonance (SPR), Single Cycle Kinetics. Conditions: SPR, Single Cycle Kinetics, GDP-bound KRAS wild-type protein; read-out: KRAS KD.
Chain of GDP-bound KRAS wild-type protein (P01116 whole entry): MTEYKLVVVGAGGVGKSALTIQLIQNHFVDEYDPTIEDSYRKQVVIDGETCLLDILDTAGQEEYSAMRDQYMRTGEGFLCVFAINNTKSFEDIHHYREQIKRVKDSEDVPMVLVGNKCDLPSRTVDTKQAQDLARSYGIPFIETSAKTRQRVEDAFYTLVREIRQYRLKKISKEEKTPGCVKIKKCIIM

The structures appear in SMILES notation. pKd: −log10 of the molar value.

Chain of GDP-bound NRAS wild-type protein (P01111 whole entry): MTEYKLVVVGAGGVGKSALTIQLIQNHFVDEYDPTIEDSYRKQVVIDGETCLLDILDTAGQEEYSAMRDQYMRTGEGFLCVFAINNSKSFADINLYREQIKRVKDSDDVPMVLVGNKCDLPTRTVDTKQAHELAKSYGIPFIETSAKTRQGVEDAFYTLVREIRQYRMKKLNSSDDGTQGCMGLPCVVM

Usually pKd stands for the Kd on a negative log10 scale, so that one unit is a factor of ten. As for `CCC[C@H]1C(=O)N[C@@H]([C@@H](C)CC)C(=O)N(C)CC(=O)N(C)[C@H]2C/C=C\CCN(C2=O)[C@@H](Cc2ccc(C(F)(F)F)cc2)C(=O)N(C)CC(=O)N[C@@H](CCc2cc(F)c(C(F)(F)F)c(F)c2)C(=O)N2C[C@@H](C)C[C@H]2C(=O)NC2(CC(C)(C)C2)C(=O)N(C)[C@@H](C2CCCC2)C(=O)N(C)[C@H](C(=O)N(C)C)CC(=O)N1C` [PP1683], the IC50 in assay [1] is 2.5 nM. For the same compound, in assay [2], the “HRAS/KRAS (KD ratio)” value is “A (a compound having 10 or more and less than 20 is denoted as A)”. Moreover, in assay [3], the “NRAS/KRAS (KD ratio)” value was “A (a compound having 10 or more and less than 20 is denoted as A)”. In assay [4], the pKd is 10.01.

As for `CCC[C@H]1C(=O)N[C@@H]([C@@H](C)CC)C(=O)N(C)CC(=O)N(C)[C@H]2C/C=C\CCN(C2=O)[C@@H](Cc2ccc(C(F)(F)F)cc2)C(=O)N(C)CC(=O)N[C@@H](CCc2cc(F)c(C(F)(F)F)c(F)c2)C(=O)N2C[C@H](OCC)C[C@H]2C(=O)NC2(CC(C)(C)C2)C(=O)N(C)[C@@H](C2CCCC2)C(=O)N(C)[C@H](C(=O)N2CCC2)CC(=O)N1C` [PP1943], in assay [1], the IC50 turned out to be 9.2 nM. Also, in assay [2], the “HRAS/KRAS (KD ratio)” value is “B (a compound having 3 or more and less than 10 is denoted as B)”. Further, the “NRAS/KRAS (KD ratio)” value in assay [3] was “A (a compound having 10 or more and less than 20 is denoted as A)”. In addition, the pKd in assay [4] is 9.96.

Regarding `CC[C@H](C)[C@@H]1NC(=O)[C@H](CC(C)C)N(C)C(=O)C[C@@H](C(=O)N(C)C)N(C)C(=O)[C@H](C2CCCC2)N(C)C(=O)C2(CC(C)(C)C2)NC(=O)[C@@H]2C[C@H](C)CN2C(=O)[C@H](CCc2cc(F)c(C(F)(F)F)c(F)c2)NC(=O)CN(C)C(=O)[C@H](Cc2ccc(C(F)(F)F)cc2)N2CC/C=C\C[C@@H](C2=O)N(C)C(=O)CN(C)C1=O` [PP1662], the IC50 in assay [1] turned out to be 6.4 nM. Moreover, the “HRAS/KRAS (KD ratio)” value in assay [2] was “B (a compound having 3 or more and less than 10 is denoted as B)”. For the same compound, the “NRAS/KRAS (KD ratio)” value in assay [3] was “A (a compound having 10 or more and less than 20 is denoted as A)”. For the same compound, in assay [4], the pKd was 9.85.

As to `CCO[C@@H]1C[C@H]2C(=O)NC3(CC(C)(C)C3)C(=O)N(C)[C@@H](C3CCCC3)C(=O)N(C)[C@H](C(=O)N(C)CC)CC(=O)N(C)[C@@H](CC(F)F)C(=O)N[C@@H]([C@@H](C)CC)C(=O)N(C)CC(=O)N(C)[C@H]3C/C=C\CCN(C3=O)[C@@H](Cc3ccc(C(F)(F)F)cc3)C(=O)N(C)CC(=O)N[C@@H](CCc3ccc(C(F)(F)F)c(OC)c3)C(=O)N2C1` [PP1655], the IC50 in assay [1] came out at 1.6 nM. Also, in assay [2], the “HRAS/KRAS (KD ratio)” value was “A (a compound having 10 or more and less than 20 is denoted as A)”. Moreover, the “NRAS/KRAS (KD ratio)” value in assay [3] is “A (a compound having 10 or more and less than 20 is denoted as A)”. Besides, in assay [4], the pKd was 10.08.

In the case of `CCO[C@@H]1C[C@H]2C(=O)NC3(CC(C)(C)C3)C(=O)N(C)[C@@H](C3CCCC3)C(=O)N(C)[C@H](C(=O)N(C)CC)CC(=O)N(C)[C@@H](CC)C(=O)N[C@@H]([C@@H](C)CC)C(=O)N(C)CC(=O)N(C)[C@H]3C/C=C\CCN(C3=O)[C@@H](Cc3ccc(C)cc3)C(=O)N(C)CC(=O)N[C@@H](CCc3ccc(C(F)(F)F)c(OC)c3)C(=O)N2C1` [PP1872], the IC50 in assay [1] is 12.4 nM. Besides, the “HRAS/KRAS (KD ratio)” value in assay [2] was “A (a compound having 10 or more and less than 20 is denoted as A)”. Further, the “NRAS/KRAS (KD ratio)” value in assay [3] is “A (a compound having 10 or more and less than 20 is denoted as A)”. Besides, the pKd in assay [4] is 9.92.

On to `CCCOC[C@H]1C(=O)N[C@@H]([C@@H](C)CC)C(=O)N(C)CC(=O)N(C)[C@H]2C/C=C\CCN(C2=O)[C@@H](Cc2ccc(C(F)(F)F)cc2)C(=O)N(C)CC(=O)N[C@@H](CCc2cc(F)c(C(F)(F)F)c(F)c2)C(=O)N2CC(F)(F)C[C@H]2C(=O)NC2(CC(C)(C)C2)C(=O)N(C)[C@@H](C2CCCC2)C(=O)N(C)[C@H](C(=O)N(C)C)CC(=O)N1C` [PP1718], for which the IC50 in assay [1] is 2.5 nM. Further, the “HRAS/KRAS (KD ratio)” value in assay [2] is “A (a compound having 10 or more and less than 20 is denoted as A)”. Moreover, the “NRAS/KRAS (KD ratio)” value in assay [3] is “AA (a compound having 20 or more is denoted as AA)”. Also, the pKd in assay [4] is 10.17.

The values above are taken from patent US20240158446A1, “CYCLIC COMPOUND HAVING SELECTIVE INHIBITORY ACTION ON KRAS OVER HRAS AND NRAS” (CHUGAI SEIYAKU KABUSHIKI KAISHA, priority 2021, published 2024).
